In the supplement of paper PMC8617591:

Key:
[1] = system: Mycobacterium tuberculosis Erdman (autoluminescent); assay: GRinf, maximum normalised growth rate inhibition (three-drug combination) (unitless (-1 to 1)); higher = less effect (negative = killing)
Protocol: (§1)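 DiaMOND equipotent three-drug combination dose responses (10 doses, 1.5- or 2-fold spacing, centred on IC90) against autoluminescent M. tuberculosis Erdman in 8 in vitro models. Read-out is OD600, or luminescence for the intracellular and dormancy models, normalised to untreated wells. Hill-fit Einf, AUC25 and GRinf are potency metrics; FIC50 and FIC90 are total Loewe fractional inhibitory concentrations as log2 (negative = synergy).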

[2] = system: Mycobacterium tuberculosis Erdman (autoluminescent); assay: Einf, fitted maximum growth inhibition of three-drug combination (fraction); higher = stronger maximal inhibition
Protocol: as §1

[3] = system: Mycobacterium tuberculosis Erdman (autoluminescent); assay: total FIC90 (Loewe) at 90% inhibition, three-drug combination (log2); higher = more antagonistic
Protocol: as §1

[4] = system: Mycobacterium tuberculosis Erdman (autoluminescent); assay: AUC25, normalised area under dose response up to IC25 (three-drug combination) (fraction (0-1)); higher = more potent at low dose
Protocol: as §1

[5] = system: Mycobacterium tuberculosis Erdman (autoluminescent); assay: total FIC50 (Loewe) at 50% inhibition, three-drug combination (log2); higher = more antagonistic
Protocol: as §1

CC(C)/N=c1\cc2n(-c3ccc(Cl)cc3)c3ccccc3nc-2cc1Nc1ccc(Cl)cc1 [clofazimine] + CC(=O)NC[C@H]1CN(c2ccc(N3CCOCC3)c(F)c2)C(=O)O1 [linezolid] + CO[C@H]1/C=C/O[C@@]2(C)Oc3c(C)c(O)c4c(O)c(c(/C=N/N5CCN(C)CC5)c(O)c4c3C2=O)NC(=O)/C(C)=C\C=C\[C@H](C)[C@H](O)[C@@H](C)[C@@H](O)[C@@H](C)[C@H](OC(C)=O)[C@@H]1C [rifampicin]
Settings	AUC25, [4]	Einf, [2]	GRinf, [1]	total FIC50, [5]	total FIC90, [3]
in vitro model: acidic pH 5.7, time point: constant (~7 days, model-specific)	0.0866	0.853	-0.0709	0.38	–
in vitro model: acidic pH 5.7, time point: terminal (~4-5 doublings, model-specific)	0.0808	0.981	-0.119	0.419	0.256
in vitro model: intracellular J774, time point: constant = terminal	–	0.941	-0.215	–	-0.471

Settings	AUC25, [4]	Einf, [2]	GRinf, [1]	total FIC50, [5]	total FIC90, [3]
in vitro model: butyrate, time point: constant (~7 days, model-specific)	0.103	0.922	-0.0328	0.22	0.103
in vitro model: butyrate, time point: terminal (~4-5 doublings, model-specific)	0.07	0.95	0.00888	0.26	-0.0854
in vitro model: cholesterol 0.05 mM, time point: constant (~7 days, model-specific)	0.14	0.687	0.0599	-0.708	–
in vitro model: cholesterol 0.05 mM, time point: terminal (~4-5 doublings, model-specific)	0.132	0.908	-0.188	4.59	-0.0601
in vitro model: cholesterol-high 0.2 mM, time point: constant (~7 days, model-specific)	0.13	0.963	-0.755	0.342	0.45
in vitro model: cholesterol-high 0.2 mM, time point: terminal (~4-5 doublings, model-specific)	0.107	0.995	-0.935	0.34	0.174
in vitro model: dormancy (butyrate + nitrate, low O2), time point: constant (~7 days, model-specific)	0.0831	0.908	0.229	1.29	0.832
in vitro model: dormancy (butyrate + nitrate, low O2), time point: terminal (~4-5 doublings, model-specific)	0.0549	0.979	-0.148	0.408	0.6
in vitro model: standard 7H9 glycerol, time point: constant = terminal	0.0962	0.917	0.0708	0.0668	0.29
in vitro model: valerate, time point: constant (~7 days, model-specific)	0.0981	0.885	-0.0893	0.928	–
in vitro model: valerate, time point: terminal (~4-5 doublings, model-specific)	0.058	0.942	-0.0199	0.756	0.805

CC(C)/N=c1\cc2n(-c3ccc(Cl)cc3)c3ccccc3nc-2cc1Nc1ccc(Cl)cc1 [clofazimine] + CC(=O)NC[C@H]1CN(c2ccc(N3CCOCC3)c(F)c2)C(=O)O1 [linezolid] + COc1c(N2C[C@@H]3CCCN[C@@H]3C2)c(F)cc2c(=O)c(C(=O)O)cn(C3CC3)c12 [moxifloxacin]
Settings	AUC25, [4]	Einf, [2]	GRinf, [1]	total FIC50, [5]	total FIC90, [3]
in vitro model: acidic pH 5.7, time point: constant (~7 days, model-specific)	0.0788	0.706	-0.3	-0.736	–
in vitro model: acidic pH 5.7, time point: terminal (~4-5 doublings, model-specific)	0.0696	0.915	-0.183	0.837	-0.131
in vitro model: intracellular J774, time point: constant = terminal	–	0.859	-0.214	–	0.527

Settings	AUC25, [4]	Einf, [2]	GRinf, [1]	total FIC50, [5]	total FIC90, [3]
in vitro model: butyrate, time point: constant (~7 days, model-specific)	0.113	0.956	-0.279	0.741	1.3
in vitro model: butyrate, time point: terminal (~4-5 doublings, model-specific)	0.0854	0.978	-0.148	0.802	1.05
in vitro model: cholesterol 0.05 mM, time point: constant (~7 days, model-specific)	0.141	0.693	-0.0883	0.0515	–
in vitro model: cholesterol 0.05 mM, time point: terminal (~4-5 doublings, model-specific)	0.148	0.925	-0.21	0.132	1.39
in vitro model: cholesterol-high 0.2 mM, time point: constant (~7 days, model-specific)	0.139	0.935	-1	0.411	0.869
in vitro model: cholesterol-high 0.2 mM, time point: terminal (~4-5 doublings, model-specific)	0.127	1	-1	-0.0894	0.513
in vitro model: dormancy (butyrate + nitrate, low O2), time point: constant (~7 days, model-specific)	0.0737	0.903	0.201	1.33	0.822
in vitro model: dormancy (butyrate + nitrate, low O2), time point: terminal (~4-5 doublings, model-specific)	0.0474	0.983	-0.18	1.18	0.998
in vitro model: standard 7H9 glycerol, time point: constant = terminal	0.105	0.971	-0.383	0.199	1.19
in vitro model: valerate, time point: constant (~7 days, model-specific)	0.124	0.868	-0.197	0.648	–
in vitro model: valerate, time point: terminal (~4-5 doublings, model-specific)	0.0951	0.919	-0.0235	0.275	1.06

CC(C)/N=c1\cc2n(-c3ccc(Cl)cc3)c3ccccc3nc-2cc1Nc1ccc(Cl)cc1 [clofazimine] + CC(=O)NC[C@H]1CN(c2ccc(N3CCOCC3)c(F)c2)C(=O)O1 [linezolid] + NC(=O)c1cnccn1 [pyrazinamide]
Settings	AUC25, [4]	Einf, [2]	GRinf, [1]	total FIC50, [5]	total FIC90, [3]
in vitro model: acidic pH 5.7, time point: constant (~7 days, model-specific)	0.115	0.851	-0.367	-0.389	–
in vitro model: acidic pH 5.7, time point: terminal (~4-5 doublings, model-specific)	0.099	0.964	-0.333	0.309	-1.87
in vitro model: intracellular J774, time point: constant = terminal	–	0.935	-0.0585	–	0.0502

Settings	AUC25, [4]	Einf, [2]	GRinf, [1]	total FIC50, [5]	total FIC90, [3]
in vitro model: butyrate, time point: constant (~7 days, model-specific)	0.121	0.931	-0.0985	-0.132	1.31
in vitro model: butyrate, time point: terminal (~4-5 doublings, model-specific)	0.08	0.95	-0.0789	-0.0376	0.0936
in vitro model: cholesterol 0.05 mM, time point: constant (~7 days, model-specific)	0.131	0.722	-0.114	–	–
in vitro model: cholesterol 0.05 mM, time point: terminal (~4-5 doublings, model-specific)	0.142	0.927	-0.198	0.348	–
in vitro model: cholesterol-high 0.2 mM, time point: constant (~7 days, model-specific)	0.137	0.934	-0.71	0.27	–
in vitro model: cholesterol-high 0.2 mM, time point: terminal (~4-5 doublings, model-specific)	0.128	1	-0.983	-0.375	0.282
in vitro model: dormancy (butyrate + nitrate, low O2), time point: constant (~7 days, model-specific)	0.104	0.958	-0.0605	0.947	1.54
in vitro model: dormancy (butyrate + nitrate, low O2), time point: terminal (~4-5 doublings, model-specific)	0.0414	0.986	-0.449	0.584	0.337
in vitro model: standard 7H9 glycerol, time point: constant = terminal	0.123	0.939	-0.131	0.477	–
in vitro model: valerate, time point: constant (~7 days, model-specific)	0.119	0.8	0.241	0.731	–
in vitro model: valerate, time point: terminal (~4-5 doublings, model-specific)	0.0593	0.874	0.183	0.277	-1.05
